Measured values published in patent publication US20060165840A1, “Fish feed” (Norsk Hydro ASA, priority 2002, published 2006).
Entries after “also recorded” stand apart in the source; their conditions may differ.

Test: Oxidative stability of salmon oil, induction period in weight increase experiment
Settings: salmon oil from fresh raw materials, antioxidant added to oil, versus control oil without additions
Experimental: The oil stability was measured as the induction period (in days) in weight increase experiment. Oil A is salmon oil with 200 ppm d-α-tocopherol. Oil E is the control without additions.
To a sample of fresh fish oil prepared by gentle processing of fresh salmon filleting by-products (viscera, heads, framebones), we added 200 ppm vitamin E consisting of 89-99% d-α-tocopherol and 1-11% (β+γ+δ)-tocopherols (according to product specification), and a mixture of other/synergistic.
To another sample of the oil, we added 200 ppm vitamin E consisting of 14% d-α-tocopherol, 1% d-β-tocopherol, 62% d-γ-tocopherol and 23% d-δ-tocopherol, and a mixture of other/synergistic antioxidants similar to what was given to the first sample.
The oxidative stability of the three oils were tested by subjecting 3.0 g samples in 6.0 cm glass petri dishes to a temperature of 35° C. while exposed to air. The oxygen uptake caused by oxidation was recorded as a rapid weight increase of the samples when their antioxidative resistance was broken down, after an initial induction time (IP).

For `Cc1c(C)c2c(c(C)c1O)CC[C@@](C)(CCC[C@H](C)CCC[C@H](C)CCCC(C)C)O2` [d-α-tocopherol], which “oil stability measured as induction period” value is on record?
Its value is “weakly prooxidant effects; also recorded: did not increase stability, but gave instead a small prooxidant effect”.
